# ChEMBL document CHEMBL2440066, “Acidic biphenyl derivatives: synthesis and biological activity of a new series of potent 5-HT(4) receptor antagonists” (Bioorg Med Chem, 2013)
# What was measured:
# [1] = target: 5-hydroxytryptamine receptor 4 (Rattus norvegicus) (UniProt Q62758); experiment: Antagonist activity at 5-HT4 receptor in rat esophagus assessed as inhibition of 5-HT-induced relaxation; type: tissue-based
# [2] = target: T1, Type-1 angiotensin II receptor (Homo sapiens, UniProt P30556); experiment: Displacement of [tyrosyl-3,5-3H]angiotensin-2 from AT1 receptor (unknown origin) expressed in QBI-HEK293A cells after 2 hrs; type: cell-based, HEK293-A
# T1 sequence (P30556 whole entry): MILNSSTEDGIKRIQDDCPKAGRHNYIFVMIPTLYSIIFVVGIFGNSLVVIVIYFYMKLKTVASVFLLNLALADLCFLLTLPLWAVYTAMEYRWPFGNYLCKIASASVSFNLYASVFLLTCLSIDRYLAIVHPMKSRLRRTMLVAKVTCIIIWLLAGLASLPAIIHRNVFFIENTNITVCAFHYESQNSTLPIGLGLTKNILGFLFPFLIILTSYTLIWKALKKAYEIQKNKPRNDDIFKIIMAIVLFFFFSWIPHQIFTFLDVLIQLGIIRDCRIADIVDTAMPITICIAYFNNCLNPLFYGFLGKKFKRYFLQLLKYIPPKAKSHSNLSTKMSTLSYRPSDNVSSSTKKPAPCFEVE
# [3] = target: T2, 5-hydroxytryptamine receptor 4 (Homo sapiens, UniProt Q13639); experiment: Displacement of [125I]SB207710 from human recombinant 5-HT4 receptor
# T2 sequence (Q13639 whole entry): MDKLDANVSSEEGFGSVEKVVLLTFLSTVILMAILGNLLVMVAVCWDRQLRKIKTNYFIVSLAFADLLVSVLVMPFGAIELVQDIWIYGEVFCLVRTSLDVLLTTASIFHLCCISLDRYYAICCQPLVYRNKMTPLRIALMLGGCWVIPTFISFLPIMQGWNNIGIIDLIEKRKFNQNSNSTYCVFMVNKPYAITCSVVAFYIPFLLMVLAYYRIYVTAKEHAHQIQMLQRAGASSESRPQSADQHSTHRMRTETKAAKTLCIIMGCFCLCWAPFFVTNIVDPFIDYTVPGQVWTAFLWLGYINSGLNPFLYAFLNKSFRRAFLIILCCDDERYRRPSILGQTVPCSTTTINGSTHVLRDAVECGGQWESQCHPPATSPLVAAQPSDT
# [4] = target: T2, 5-hydroxytryptamine receptor 4; experiment: Antagonist activity at human 5HT4B receptor expressed in HEK293 cells assessed as inhibition of 5HT-stimulated adenylyl cyclase activity; type: functional, cell-based
# [5] = target: 5-hydroxytryptamine receptor 4 (Cavia porcellus, UniProt O70528); experiment: Displacement of [125I]SB207710 from 5-HT4 receptor in guinea pig brain membranes; type: cell membranes, Membrane
# Chain of 5-hydroxytryptamine receptor 4 (Cavia porcellus, UniProt O70528) (O70528 whole entry): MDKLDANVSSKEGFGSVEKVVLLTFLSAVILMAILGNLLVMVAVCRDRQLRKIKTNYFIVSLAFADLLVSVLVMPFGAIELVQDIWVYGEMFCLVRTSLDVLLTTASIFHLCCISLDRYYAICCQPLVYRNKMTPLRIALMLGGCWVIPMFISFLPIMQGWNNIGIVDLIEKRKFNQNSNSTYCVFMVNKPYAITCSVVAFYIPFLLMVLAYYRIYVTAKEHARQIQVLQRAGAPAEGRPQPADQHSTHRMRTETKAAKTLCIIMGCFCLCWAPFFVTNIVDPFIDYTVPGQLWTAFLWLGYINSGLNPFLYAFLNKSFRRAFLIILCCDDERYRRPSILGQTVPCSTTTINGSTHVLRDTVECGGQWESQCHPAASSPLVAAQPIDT
# [6] = Octanol-buffer partition coefficient, log D of the compound at pH 7.4; type: physicochemical
# [7] = Apparent permeability of the compound in human Caco2 cells at 1 uM; type: ADME, cell-based; conditions: Caco-2
# [8] = target: T2, 5-hydroxytryptamine receptor 4; experiment: Displacement of [3H]GR113808 from human 5HT4B receptor expressed in HEK293 cells; type: cell-based
# [9] = target: 5-hydroxytryptamine receptor 4 (Rattus norvegicus) (UniProt Q62758); experiment: Antagonist activity at 5-HT4 receptor in rat carbachol-contracted esophagus muscularis mucosae assessed as inhibition of 5-HT-induced relaxation
# 3T3-L1 = experiment: Cytotoxicity against mouse 3T3L1 cells assessed as cell death at 5 ug/ml after 72 hrs by neutral red assay; type: cell-based; conditions: 3t3-l1, 72 h
# hERG (KCNH2) [10] = target: T3, hERG (KCNH2) (Homo sapiens, UniProt Q12809); experiment: Inhibition of human ERG expressed in HEK293 cells at 100 uM by patch-clamp technique; type: cell-based; conditions: HEK293 cells that express hERG
# T3 sequence (Q12809 whole entry): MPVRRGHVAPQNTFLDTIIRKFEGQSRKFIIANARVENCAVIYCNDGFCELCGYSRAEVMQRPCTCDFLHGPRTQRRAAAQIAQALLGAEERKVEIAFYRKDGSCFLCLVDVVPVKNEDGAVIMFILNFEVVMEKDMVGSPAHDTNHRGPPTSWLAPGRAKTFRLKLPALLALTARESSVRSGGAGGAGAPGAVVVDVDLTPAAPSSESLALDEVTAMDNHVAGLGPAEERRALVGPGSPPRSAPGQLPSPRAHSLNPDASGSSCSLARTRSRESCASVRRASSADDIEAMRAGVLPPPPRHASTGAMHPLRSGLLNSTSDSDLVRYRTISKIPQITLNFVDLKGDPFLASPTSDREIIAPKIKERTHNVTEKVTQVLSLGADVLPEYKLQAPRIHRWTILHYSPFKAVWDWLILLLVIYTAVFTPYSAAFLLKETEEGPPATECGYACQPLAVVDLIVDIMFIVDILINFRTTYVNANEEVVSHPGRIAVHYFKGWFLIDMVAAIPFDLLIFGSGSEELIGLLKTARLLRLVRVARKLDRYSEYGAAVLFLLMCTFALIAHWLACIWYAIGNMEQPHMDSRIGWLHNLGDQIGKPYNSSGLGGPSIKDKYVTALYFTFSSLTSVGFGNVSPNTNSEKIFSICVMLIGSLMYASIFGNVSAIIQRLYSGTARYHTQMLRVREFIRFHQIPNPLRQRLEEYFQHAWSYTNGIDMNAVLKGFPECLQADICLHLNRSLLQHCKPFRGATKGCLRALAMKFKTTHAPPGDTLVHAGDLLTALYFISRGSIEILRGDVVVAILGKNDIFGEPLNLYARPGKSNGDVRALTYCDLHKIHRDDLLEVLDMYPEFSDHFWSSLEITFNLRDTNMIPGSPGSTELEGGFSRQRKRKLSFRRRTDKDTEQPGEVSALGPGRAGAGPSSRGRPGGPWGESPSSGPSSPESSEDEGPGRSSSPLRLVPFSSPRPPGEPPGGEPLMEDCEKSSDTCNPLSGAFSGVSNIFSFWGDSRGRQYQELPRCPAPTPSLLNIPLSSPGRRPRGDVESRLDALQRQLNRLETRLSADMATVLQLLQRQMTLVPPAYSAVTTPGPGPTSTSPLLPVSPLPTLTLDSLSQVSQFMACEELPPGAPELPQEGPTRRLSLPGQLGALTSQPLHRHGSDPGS
# [11] = target: Voltage-gated inwardly rectifying potassium channel KCNH2 (Homo sapiens, UniProt Q12809); experiment: Inhibition of human ERG expressed in HEK293 cells by patch-clamp technique; type: cell-based
# Chain of Voltage-gated inwardly rectifying potassium channel KCNH2 (Q12809 whole entry): as above
# Rattus norvegicus [12] = experiment: Elimination half life in Sprague-Dawley rat assessed as 4'-((4-(((3,4-Dihydro-2H-[1,3]oxazino[3,2-a]indole-10-carbonyl)oxy)methyl)piperidin-1-yl)methyl)[1,1'-biphenyl]-2-carboxylic acid level at 10 mg/kg, po; type: ADME, organism-based; parameters: dose 10 mg/kg, route oral; conditions: in vivo
# [13] = Cmax in Sprague-Dawley rat at 10 mg/kg, po; type: ADME, organism-based; parameters: dose 10 mg/kg, route oral; conditions: in vivo
# Rattus norvegicus [14] = experiment: AUC (0 to infinity) in Sprague-Dawley rat assessed as 4'-((4-(((3,4-Dihydro-2H-[1,3]oxazino[3,2-a]indole-10-carbonyl)oxy)methyl)piperidin-1-yl)methyl)[1,1'-biphenyl]-2-carboxylic acid level at 10 mg/kg, po; type: ADME, organism-based, Plasma; parameters: time infinity, dose 10 mg/kg, route oral; conditions: in vivo
# [15] = Tmax in Sprague-Dawley rat at 10 mg/kg, po; type: ADME, organism-based; parameters: dose 10 mg/kg, route oral; conditions: in vivo
# Rattus norvegicus [16] = experiment: Tmax in Sprague-Dawley rat assessed as 4'-((4-(((3,4-Dihydro-2H-[1,3]oxazino[3,2-a]indole-10-carbonyl)oxy)methyl)piperidin-1-yl)methyl)[1,1'-biphenyl]-2-carboxylic acid level at 10 mg/kg, po; type: ADME, organism-based; parameters: dose 10 mg/kg, route oral; conditions: in vivo
# Rattus norvegicus [17] = experiment: AUC (0 to 6 hrs) in Sprague-Dawley rat assessed as 4'-((4-(((3,4-Dihydro-2H-[1,3]oxazino[3,2-a]indole-10-carbonyl)oxy)methyl)piperidin-1-yl)methyl)[1,1'-biphenyl]-2-carboxylic acid level at 10 mg/kg, po; type: ADME, organism-based, Plasma; parameters: time < 6 hr, dose 10 mg/kg, route oral; conditions: in vivo
# [18] = AUC (0 to 6 hrs) in Sprague-Dawley rat at 10 mg/kg, po; type: ADME, organism-based; parameters: time < 6 hr, dose 10 mg/kg, route oral; conditions: plasma
# Rattus norvegicus [19] = experiment: Cmax in Sprague-Dawley rat assessed as 4'-((4-(((3,4-Dihydro-2H-[1,3]oxazino[3,2-a]indole-10-carbonyl)oxy)methyl)piperidin-1-yl)methyl)[1,1'-biphenyl]-2-carboxylic acid level at 10 mg/kg, po; type: ADME, organism-based; parameters: dose 10 mg/kg, route oral; conditions: in vivo
# hERG (KCNH2) [20] = target: T3, hERG (KCNH2); experiment: Inhibition of human ERG expressed in HEK293 cells at 10 uM by patch-clamp technique; type: cell-based; conditions: HEK293 cells that express hERG
# hERG (KCNH2) [21] = target: T3, hERG (KCNH2); experiment: Inhibition of human ERG expressed in HEK293 cells at 50 uM by patch-clamp technique; type: cell-based; conditions: HEK293 cells that express hERG
# Chain of 5-hydroxytryptamine receptor 4 (Rattus norvegicus) (Q62758 whole entry): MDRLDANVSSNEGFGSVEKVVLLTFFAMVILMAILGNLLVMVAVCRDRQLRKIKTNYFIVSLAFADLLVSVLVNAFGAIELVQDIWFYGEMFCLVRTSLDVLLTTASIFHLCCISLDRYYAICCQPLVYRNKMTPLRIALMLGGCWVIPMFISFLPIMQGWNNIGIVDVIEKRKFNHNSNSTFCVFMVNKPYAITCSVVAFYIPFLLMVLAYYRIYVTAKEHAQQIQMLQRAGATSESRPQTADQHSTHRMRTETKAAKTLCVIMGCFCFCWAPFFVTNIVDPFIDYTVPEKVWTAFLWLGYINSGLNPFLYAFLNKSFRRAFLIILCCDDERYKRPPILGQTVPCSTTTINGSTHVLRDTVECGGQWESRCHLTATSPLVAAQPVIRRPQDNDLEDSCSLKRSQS
smiles,measurement,setting,value
Cc1noc(-c2ccccc2NC(=O)OCC2CCN(CCNS(C)(=O)=O)CC2)n1,pKb,[1],10.8
CCCCN1CCC(CNC(=O)c2c3n(c4ccccc24)CCCO3)CC1 [PIBOSEROD],Ki,[2],> 10000 nM
same,Ki,[3],1.58 nM
same,pKb,[4],9.5
same,Ki,[5],1.58 nM
CC(C)(C)C(=O)OCOC(=O)c1ccccc1-c1ccc(CN2CCC(COC(=O)c3c4n(c5ccccc35)CCCO4)CC2)cc1.CS(=O)(=O)O,logD,[6],4.7
same,Papp at 1 µM,[7],9 ×10⁻⁶ cm/s
O=C(O)c1ccccc1-c1ccc(CN2CCC(CNC(=O)c3c4n(c5ccccc35)CCCO4)CC2)cc1,Ki,[2],> 10000 nM
same,Ki,[8],0.631 nM
Cc1noc(-c2ccc(F)cc2NC(=O)OCC2CCN(CCNS(C)(=O)=O)CC2)n1,pKb,[1],8.9
COC(=O)c1ccccc1-c1ccc(CN2CCC(CNC(=O)c3c4n(c5ccccc35)CCCO4)CC2)cc1,Ki,[2],> 10000 nM
same,Ki,[8],0.0631 nM
CCCCN1CCC(CCC(=O)c2cc(Cl)c(N)c3c2OCCO3)CC1,pKb,[9],9.9
CCCCN1CCC(CNC(=O)c2c3n(c4cc(O)ccc24)CCCO3)CC1,Ki,[3],794 nM
same,Ki,[5],794 nM
CC(C)(C)C(=O)OCn1nnc(-c2ccccc2-c2ccc(CN3CCC(COC(=O)c4c5n(c6ccccc46)CCCO5)CC3)cc2)n1.CS(=O)(=O)O,logD,[6],4.3
same,Papp at 1 µM,[7],5.1 ×10⁻⁶ cm/s
CS(=O)(=O)O.Cc1oc(=O)oc1COC(=O)c1ccccc1-c1ccc(CN2CCC(COC(=O)c3c4n(c5ccccc35)CCCO4)CC2)cc1,logD,[6],4.6
same,Papp at 1 µM,[7],16.1 ×10⁻⁶ cm/s
COc1ccc(CCCN2CCC(CCC(=O)c3cc(Cl)c(N)c4c3OCCO4)CC2)cc1,pKb,[9],10.6
CS(=O)(=O)NCCN1CCC(CCC(=O)c2cc(Cl)c(N)c3c2OCCO3)CC1,pKb,[9],9.9
CC(O)CCN1CCC(CNC(=O)c2c3n(c4ccccc24)CCCO3)CC1 (stereo unspecified),Ki,[3],0.794 nM
same,Ki,[5],0.794 nM
COc1ccc(NC(=O)OCC2CCN(CCNS(C)(=O)=O)CC2)c(-c2nc(C)no2)c1,pKb,[1],8.1
CS(=O)(=O)O.O=C(O)c1ccccc1-c1ccc(CN2CCC(COC(=O)c3c4n(c5ccccc35)CCCO4)CC2)cc1,Ki,[2],1580 nM
same,logD,[6],1.3
same,Papp at 1 µM,[7],0.8 ×10⁻⁶ cm/s
same,Activity,3T3-L1,14%
same,Ki,[8],0.0501 nM
same,inhibition at 100 µM,hERG (KCNH2) [10],31%
same,pKb,[4],9.8
same,IC50,[11],47500 nM
CC(C)NCC(O)c1ccc(NS(C)(=O)=O)cc1 (stereo unspecified) [SOTALOL],Papp at 1 µM,[7],0.8 ×10⁻⁶ cm/s
CC(C)CCOC(=O)c1ccccc1-c1ccc(CN2CCC(COC(=O)c3c4n(c5ccccc35)CCCO4)CC2)cc1.CS(=O)(=O)O,logD,[6],4.9
same,Papp at 1 µM,[7],5.4 ×10⁻⁶ cm/s
CCCCOC(=O)c1ccccc1-c1ccc(CN2CCC(COC(=O)c3c4n(c5ccccc35)CCCO4)CC2)cc1.CS(=O)(=O)O,logD,[6],4.9
same,beta t1/2,Rattus norvegicus [12],9.92 h
same,Papp at 1 µM,[7],13.9 ×10⁻⁶ cm/s
same,Cmax,[13],80 ng/mL
same,AUC,Rattus norvegicus [14],124 ng·h/mL
same,Tmax,[15],6 h
same,Tmax,Rattus norvegicus [16],2 h
same,AUC,Rattus norvegicus [17],39 ng·h/mL
same,AUC(0-t) at 6 h,[18],313 ng·h/mL
same,Cmax,Rattus norvegicus [19],10 ng/mL
CC(=O)OCOC(=O)c1ccccc1-c1ccc(CN2CCC(COC(=O)c3c4n(c5ccccc35)CCCO4)CC2)cc1.CS(=O)(=O)O,logD,[6],4.5
same,Papp at 1 µM,[7],1.4 ×10⁻⁶ cm/s
O=C(NCC1CCN(Cc2ccc(-c3ccccc3-c3nnn[nH]3)cc2)CC1)c1c2n(c3ccccc13)CCCO2,Ki,[2],> 10000 nM
same,Activity,3T3-L1,0%
same,Ki,[8],3.98 nM
same,pKb,[4],9.7
COC(=O)c1ccccc1-c1ccc(CN2CCC(COC(=O)c3c4n(c5ccccc35)CCCO4)CC2)cc1.CS(=O)(=O)O,Ki,[2],> 10000 nM
same,logD,[6],4.5
same,beta t1/2,Rattus norvegicus [12],15.6 h
same,Papp at 1 µM,[7],25 ×10⁻⁶ cm/s
same,Cmax,[13],244 ng/mL
same,Activity,3T3-L1,75%
same,Ki,[8],0.00126 nM
same,inhibition at 10 µM,hERG (KCNH2) [20],2%
same,AUC,Rattus norvegicus [14],542 ng·h/mL
same,Tmax,[15],2 h
same,Tmax,Rattus norvegicus [16],1 h
same,AUC,Rattus norvegicus [17],114 ng·h/mL
same,AUC(0-t) at 6 h,[18],1110 ng·h/mL
same,pKb,[4],10.6
same,Cmax,Rattus norvegicus [19],30 ng/mL
same,IC50,[11],131 nM
Cl.O=C(OCc1ccccc1)c1ccccc1-c1ccc(CN2CCC(COC(=O)c3c4n(c5ccccc35)CCCO4)CC2)cc1,logD,[6],5.1
same,Papp at 1 µM,[7],1.1 ×10⁻⁶ cm/s
O=C(OCC1CCN(Cc2ccc(-c3ccccc3-c3nnn[nH]3)cc2)CC1)c1c2n(c3ccccc13)CCCO2,pKb,[4],10.6
O=C(OCC1CCN(Cc2ccc(-c3ccccc3-c3nn[nH]n3)cc2)CC1)c1c2n(c3ccccc13)CCCO2,Ki,[2],> 10000 nM
same,logD,[6],1.6
same,Papp at 1 µM,[7],2.9 ×10⁻⁶ cm/s
same,Activity,3T3-L1,0%
same,Ki,[8],2.51 nM
same,inhibition at 50 µM,hERG (KCNH2) [21],35%
same,IC50,[11],27500 nM
O=C(NCC1CCNCC1)c1c2n(c3ccccc13)CCCO2,Ki,[3],63.1 nM
same,Ki,[5],63.1 nM
Cn1cc(C(=O)OCC2CCN(CCNS(C)(=O)=O)CC2)c2ccccc21,pKb,[4],8.7
Nc1c(Cl)cc(C(=O)CCC2CCN(CCCc3ccccc3)CC2)c2c1OCCO2,pKb,[9],9.6
